US8822541B2, “Use of targeted nitroxide agents in mitigating or treating radiation injury” (University of Pittsburgh—Of the Commonwealth System of …, priority 2008, dated 2014)

Assays:
[1] = system: KM101 human marrow stromal cells; test: Irradiation survival of KM101 marrow stromal cells; assay type: cell-based; conditions: 10 μM; for n (shoulder): control 1.1
Method: KM101 cells were incubated in media alone or in JP4-039 (10 μM) for one hour before irradiation or 24 hours after irradiation. The cells were irradiated to doses ranging from 0 to 6 Gy and plated in 4 well plates. Seven days later the cells were stained with crystal violet and colonies of greater than 50 cells counted. Cells incubated in JP4-039 either before or after irradiation were more radioresistant as shown by an increased shoulder of n=2.3±0.2 or 2.2±0.2, respectively compared to n of 1.1±0.1 for the KM101 cells (p=0.0309 or 0.0386, respectively).

[2] = system: 32D cl 3 cells; test: Clonogenic radiation survival curves of 32D cl 3 cells (PLDR study); assay type: cell-based, mouse; design: key to D0: D0 in Gy, from single-hit multitarget model
Method: (§1) 32D cl 3 cells were resuspended at 1×10^5 cells/mL in 10×100-mm tubes and divided into three groups: radiation only, post-irradiation treatment with 10 μM JP4-039, and post-irradiation treatment with 10 μM TEMPO. Cells were irradiated to doses ranging from 0 to 8 Gy and were plated immediately after irradiation.
as §1, with “5×10^5” for “1×10^5”, “then incubated in exponentially growing colonies (flasks) for 24, 48 and 72 h in a high-humidity incubator at 37° C. with 95% air/5% CO2.” for “plated immediately after irradiation.”
32D cl 3 cells were resuspended at 5×10^5 cells/mL in 10×100-mm tubes. Cells were irradiated to doses ranging from 0 to 8 Gy and were then centrifuged at 1500 RPM for 10 minutes and incubated in vertical tubes held tight in pellets with a total of 5×10^5 cells/pellet for 24, 48 and 72 h in a high-humidity incubator at 37° C. with 95% air/5% CO2.
Cells incubated under either logarithmic or PLDR conditions were resuspended at 24, 48 and 72 h after irradiation, and cell viability was assessed using an automated cell viability counter (Beckman Coulter, Fullerton, Calif.). Subsequently, at 24, 48, 72 h, cells in pellets and flasks were resuspended and treated with 10 μM JP4-039, 10 μM TEMPO, or no treatment and were plated in triplicate in semisolid methylcellulose-containing medium at viable cell concentrations ranging from 500-40,000 cells/mL. Cells were incubated in a high-humidity incubator at 37° C. with 95% air/5% CO2 for 7 d and colonies of greater than 50 cells were scored according to published methods (Epperly M W, Gretton J E, Sikora C A, Jefferson M, Bernarding M, Nie S, et al.: Mitochondrial localization of superoxide, dismutase is required for decreasing radiation-induced cellular damage. Radiat Res. 160: 568-578, 2003).
Data from radiation survival curves were analyzed using the linear-quadratic and single-hit, multitarget models (Epperly M, et al., Prevention of late effects of irradiation lung damage by manganese superoxide dismutase gene therapy. Gene Ther. 5: 196-208, 1998). Results are presented as the mean±standard error of the mean from at least three measurements. Student's t test and two-way ANOVA were used to compare means of different groups where appropriate.

[3] = system: Sprague Dawley rats; test: Survival of rats subjected to volume-controlled hemorrhagic shock; assay type: in vivo, rat; conditions: 2 μmol/kg iv
Method: Survival of rats subjected to volume-controlled hemorrhagic shock. Following surgical preparation and a 5-min stabilization period to obtain baseline readings, rats were subjected to hemorrhagic shock. Bleeding was carried out in 2 phases.
Initially, 21 ml/kg of blood was withdrawn over 20 min. Immediately thereafter, an additional 12.5 ml/kg of blood was withdrawn over 40 min. Thus, hemorrhage occurred over a total period of 60 min and the total blood loss was 33.5 ml/kg or approximately 55% of the total blood volume. Rats were randomly assigned to receive XJB-5-131 (2 μmol/kg) or its vehicle, a 33:67 (v/v) mixture of DMSO and normal saline. XJB-5-131 solution or vehicle alone was administered as a continuous infusion during the last 20 min of the hemorrhage period. The total volume of fluid infused was 2.8 ml/kg and it was administered intravenously using a syringe pump (KD100, KD Scientific, New Hope, Pa.). […] At the end of the 6 hour observation period, animals that were still alive were euthanized with an overdose of KCl.
Blood pressure was recorded continuously using a commercial strain-gauge transducer, amplifier, and monitor (S90603a, SpaceLabs, Redmond, Wash.). Blood samples (0.5 ml) were collected from the jugular vein at the beginning of hemorrhage (baseline), at the end of hemorrhage (shock) and at the end of resuscitation (resuscitation). Hemoglobin concentration [Hb], lactate and glucose concentration were determined using an auto-analyzer (Model ABL 725, Radiometer Copenhagen, Westlake, Ohio).
A total of sixteen rats were tested in this study. Rats were treated with 2.8 ml/kg of vehicle or the same volume of XJB-5-131 solution during the final 20 min of the bleeding protocol. The total dose of XJB-5-131 infused was 2 μmol/kg. Following profound hemorrhagic shock consistent with the protocol described above for the prior studies, thirteen survived for at least 60 min and received the full dose of either XJB-5-131 solution or the vehicle, a 33:67 (v/v) mixture of DMSO and normal saline. […] None of the between-group differences were statistically significant.

[4] = system: Ercc1−/cond; K14-Cre mice; test: Photoaging after UV-B in Ercc1−/cond; K14-Cre mice; assay type: in vivo, mouse; conditions: 80 ug in cream daily for five days
Method: As a measure of the effect of XJB-5-131 on photoaging, Ercc1^−/cond; K14-Cre mice, which are missing ERCC1 only in the skin, were shaved, treated with a depilatory then irradiated with UV-B light to induce a sunburn (500 J/m^2, the median erythemal dose). Subsequently, the mice were treated with XJB-5-131 (80 ug) emulsified in a cream daily for five days.

[5] = 0 hours, 10 μM post-irradiation

Row | SMILES | n (shoulder) ([1]; 24 hours after irradiation) | Do ([1]; before or after irradiation) | n (shoulder) ([1]; one hour before irradiation) | D0 [2, 5] | Ñ [2, 5] | radiation mitigation ([2]; 48 or 72 h after irradiation) | D0 ([2]; 24 hours (Flask), 10 μM) | Ñ ([2]; 24 hours (Flask), 10 μM) | D0 ([2]; 24 hours (Pellet), 10 μM) | Ñ ([2]; 24 hours (Pellet), 10 μM) | rats surviving longer than 3 hours after completion of the hemorrhage protocol [3] | rats surviving the whole 6 hour post-bleeding observation period [3] | survival time versus vehicle ([3]; no resuscitation) | appearance of UV-B irradiated skin [4]
1 | CC(C)C[C@@H](/C=C/CC(=O)NC1CC(C)(C)N([O])C(C)(C)C1)NC(=O)OC(C)(C)C [JP4-039, TEMPO-4-yl-(S,E)-5-(tert-butoxycarbonylamino)-7-methyloct-3-enamide] | 2.2±0.2 | no significant change | 2.3±0.2 | 0.91 ± 0.11 | 37.43±7.50 | no statistically significant radiation mitigation | 1.22 ± 0.16 | 10.35±0.33 | 1.12 ± 0.27 | 18.49±3.90 |  |  |  | 
2 | CC(C)C[C@@H](/C=C/[C@H](Cc1ccccc1)C(=O)N1CCC[C@H]1C(=O)N[C@H](C(=O)N[C@@H](CCCNC(=O)OCc1ccccc1)C(=O)NC1CC(C)(C)N([O])C(C)(C)C1)C(C)C)NC(=O)OC(C)(C)C [XJB-5-131] |  |  |  |  |  |  |  |  |  |  | Three of the six | one rat | survived significantly longer | much more smooth and healthy
